In patent publication US5945433A, “Quinoline derivatives containing a diol as leukotriene antagonists” (Leo Pharmaceutical Products, Ltd. A/S, priority 1995, dated 1999):
Where “and” joins values, the source holds several entries; their conditions need not be identical. Equal values may be shown once. Read-outs that look alike come from different tables or passages of the source.

Key:
LTD4 receptor = target: T1, LTD4 receptor (Cavia porcellus, UniProt Q2NNR5); test: Receptor binding: direct competition with [^3 H]LTD4 on guinea-pig lung membranes; details: mean ± SD (n) or individual values
T1 construct: from tissue; host or cells: guinea-pig lung membranes
T1 sequence (Q2NNR5 1-340): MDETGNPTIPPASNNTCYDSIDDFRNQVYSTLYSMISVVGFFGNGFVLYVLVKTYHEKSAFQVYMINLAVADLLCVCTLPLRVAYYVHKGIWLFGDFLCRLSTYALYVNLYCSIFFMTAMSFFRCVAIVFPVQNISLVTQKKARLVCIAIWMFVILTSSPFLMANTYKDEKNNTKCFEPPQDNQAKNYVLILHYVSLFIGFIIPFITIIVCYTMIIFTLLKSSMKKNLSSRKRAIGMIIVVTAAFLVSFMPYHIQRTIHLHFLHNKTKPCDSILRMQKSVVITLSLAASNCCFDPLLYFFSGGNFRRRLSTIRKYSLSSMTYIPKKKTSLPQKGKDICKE
Experimental: It is of importance to investigate the receptor binding properties of leukotriene antagonists in relation to their inhibition of smooth muscle contraction. Receptor binding studies may be performed with guinea-pig lung membranes in a direct competition assay between a leukotrien antagonist and [^3 H]LTD4 for binding to the LTD4 receptor^3,4. A pIC50 value is determined as the negative logarithm of the molar concentration of antagonist inhibiting [^3 H]LTD4 binding by 50%. The pIC50 values for the compounds of the present invention are equal to or higher than those for the reference compound SR3040^5 (see Table I)

[1] = tested on: LTD4-induced bronchoconstriction; test: LTD4-induced bronchoconstriction in anaesthetized guinea-pigs; format: in vivo, guinea-pig; details: Cavia porcellus
Experimental: The leukotriene antagonistic effect was tested in vivo on LTD4 -induced bronchoconstriction in anaesthetized guinea-pigs^3. […] The ED50 values represent the dose inhibiting the leukotriene induced bronchoconstriction by 50%. The ED50 values were calculated by regression analysis of 2-3 doses.

[2] = absence of albumin, read-out: pIC50, binding of [^3 H]LTD4, absence of albumin (converted)
[3] = presence of 0.1% human serum albumin, read-out: pIC50, binding of [^3 H]LTD4, presence of albumin (converted)
[4] = iv, 10 min, i.v., 10 min before bronchoconstriction
[5] = po, 24 h before bronchoconstriction
[6] = po, 48 h before bronchoconstriction
[7] = po, 4 h before bronchoconstriction

`OC[C@@H](O)[C@@H](Nc1cccc(/C=C/c2ccc3cc(F)c(F)cc3n2)c1)c1ccccc1` [Example 8] was tested, and the IC50 (LTD4 receptor; [2]) was 1 nM, the IC50 (LTD4 receptor; [3]) was 0.501 nM and the ED50 [1, 4] was 0.18 mg/kg. For the same compound, the ED50 [1, 5] was 14.9 mg/kg and the ED50 [1, 6] was greater than 30 mg/kg.

Compound `OC[C@H](O)[C@H](Nc1cccc(/C=C/c2ccc3ccc(F)cc3n2)c1)c1ccccc1` [Example 5] has an IC50 (LTD4 receptor; [2]) of 3.98 nM and an IC50 (LTD4 receptor; [3]) of 2.51 nM.

With `OC[C@H](O)[C@H](Nc1cccc(/C=C/c2ccc3ccc(Cl)cc3n2)c1)c1ccccc1` [Example 3] the IC50 (LTD4 receptor; [2]) was 5.01 nM and 6.31 nM, the IC50 (LTD4 receptor; [3]) was 3.98 nM and 2.51 nM and the ED50 [1, 4] was 0.3 mg/kg. For the same compound, the ED50 [1, 7] was 0.956 mg/kg and the ED50 [1, 5] was 20.3 mg/kg.

`OC[C@H](O)[C@H](Nc1cccc(/C=C/c2ccc3cc(F)c(F)cc3n2)c1)c1ccccc1` [Example 7, (+)-2R,3R-E-3-N-[3-2-(6,7-difluoroquinolin-2-yl)ethenyl]-phenylamino-3-phenyl-1,2-propandiol] gave an IC50 (LTD4 receptor; [2]) of 1.58 nM, an IC50 (LTD4 receptor; [3]) of 0.794 nM and an ED50 [1, 4] of 0.058 mg/kg. For the same compound, the ED50 [1, 7] was 1.64 mg/kg, the ED50 [1, 5] was 4.64 mg/kg and the ED50 [1, 6] was 9.73 mg/kg. For the same compound, the ED50 ([1]; po, 72 h before bronchoconstriction) was greater than 30 mg/kg.

With `OC[C@@H](O)[C@@H](Nc1cccc(/C=C/c2ccc3ccc(Cl)cc3n2)c1)c1ccccc1` [Example 4] the IC50 (LTD4 receptor; [2]) was 3.98 nM, the IC50 (LTD4 receptor; [3]) was 1.26 nM and 2 nM and the ED50 [1, 4] was 0.35 mg/kg. For the same compound, the ED50 [1, 7] was 3.63 mg/kg, the ED50 [1, 5] was 8.66 mg/kg and the ED50 [1, 6] was greater than 30 mg/kg.

`OC[C@@H](O)[C@@H](Nc1cccc(/C=C/c2ccc3ccc(F)cc3n2)c1)c1ccccc1` [Example 6] gave an IC50 (LTD4 receptor; [2]) of 1.58 nM and an IC50 (LTD4 receptor; [3]) of 1.58 nM.
